Source: patent US20250147039A1, “Compounds for complexation of rare earth elements and/or s-, p-, d- block metals, their coordination compounds, peptide conjugates, method of their preparation and use thereof” (USTAV ORGANICKE CHEMIE A BIOCHEMIE AV CR V.V.I., priority 2021, published 2025)

Columns and labels:
[1] = Formation of 1,5-cz-[Ln(Lig)] from Lig and Ln^III ions (metal dependent click-zip), MOPS/NaOH buffer pH 7.0, analytical HPLC (Charts 1, 2); details: MOPS/NaOH buffer pH 7.0
[2] = Alkali metal dependent formation of 1,5-cz-Lig and 1,4-cz-Lig isomers from Lig at pH 10.2 (Chart 14); type: physicochemical; details: Borate/(M^I)2CO3 buffer pH 10.2
[3] = Formation of 1,5-cz-[M(Lig)] from Lig and M^III ions (metal dependent click-zip) (Charts 4, 5); type: physicochemical; details: MOPS/NaOH buffer pH 7.0, TD728, TD827 in 50% i-PrOH; for conversion to 1,5-cz-[M(Lig)], Y^III: TD714 sum of two diastereoisomers
[4] = Formation of 1,5-cz-[M(Lig)] from Lig and M^II ions (metal dependent click-zip) (Charts 6, 7); type: physicochemical; details: MOPS/NaOH buffer pH 7.0; for conversion to 1,5-cz-[M(Lig)], Ca^II / conversion to 1,5-cz-[M(Lig)], Cd^II: TD728 in 50% i-PrOH
[5] = B: 1 day at 80° C., visible analyte free precipitate

C#Cc1cccc(CN2CCN(CP(=O)(O)c3ccccc3)CCN(Cc3cccc(CN=[N+]=[N-])n3)CCN(CP(=O)(O)c3ccccc3)CC2)n1 [TD921]
conversion to 1,5-cz-[Ln(Lig)], Ce^III ([1]; after 1 week at 80° C.): 0% | conversion to 1,5-cz-[Ln(Lig)], Ce^III ([1]; after 1 hour at 80° C.): 0% | conversion to 1,5-cz-[Ln(Lig)], Dy^III ([1]; after 1 week at 80° C.): 37% | conversion to 1,5-cz-[Ln(Lig)], Dy^III ([1]; after 1 hour at 80° C.): 1% | conversion to 1,5-cz-[Ln(Lig)], Er^III ([1]; after 1 week at 80° C.): 26% | conversion to 1,5-cz-[Ln(Lig)], Er^III ([1]; after 1 hour at 80° C.): 1% | conversion to 1,5-cz-[Ln(Lig)], Eu^III ([1]; after 1 week at 80° C.): 31% | conversion to 1,5-cz-[Ln(Lig)], Eu^III ([1]; after 1 hour at 80° C.): 1% | conversion to 1,5-cz-[Ln(Lig)], Gd^III ([1]; after 1 week at 80° C.): 28% | conversion to 1,5-cz-[Ln(Lig)], Gd^III ([1]; after 1 hour at 80° C.): 0% | conversion to 1,5-cz-[Ln(Lig)], Ho^III ([1]; after 1 week at 80° C.): 31% | conversion to 1,5-cz-[Ln(Lig)], Ho^III ([1]; after 1 hour at 80° C.): 1% | conversion to 1,5-cz-[Ln(Lig)], La^III ([1]; after 1 week at 80° C.): 0% | conversion to 1,5-cz-[Ln(Lig)], La^III ([1]; after 1 hour at 80° C.): 0% | conversion to 1,5-cz-[Ln(Lig)], Lu^III ([1]; after 1 week at 80° C.): 10% | conversion to 1,5-cz-[Ln(Lig)], Lu^III ([1]; after 1 hour at 80° C.): 1% | conversion to 1,5-cz-[Ln(Lig)], Nd^III ([1]; after 1 week at 80° C.): 43% | conversion to 1,5-cz-[Ln(Lig)], Nd^III ([1]; after 1 hour at 80° C.): 4% | conversion to 1,5-cz-[Ln(Lig)], Pr^III ([1]; after 1 week at 80° C.): 55% | conversion to 1,5-cz-[Ln(Lig)], Pr^III ([1]; after 1 hour at 80° C.): 5% | conversion to 1,5-cz-[Ln(Lig)], Sm^III ([1]; after 1 week at 80° C.): 42% | conversion to 1,5-cz-[Ln(Lig)], Sm^III ([1]; after 1 hour at 80° C.): 1% | conversion to 1,5-cz-[Ln(Lig)], Tb^III ([1]; after 1 week at 80° C.): 41% | conversion to 1,5-cz-[Ln(Lig)], Tb^III ([1]; after 1 hour at 80° C.): 1% | conversion to 1,5-cz-[Ln(Lig)], Tm^III ([1]; after 1 week at 80° C.): 18% | conversion to 1,5-cz-[Ln(Lig)], Tm^III ([1]; after 1 hour at 80° C.): 1% | conversion to 1,5-cz-[Ln(Lig)], Yb^III ([1]; after 1 week at 80° C.): 15% | conversion to 1,5-cz-[Ln(Lig)], Yb^III ([1]; after 1 hour at 80° C.): 1% | conversion to 1,4-cz-Lig isomer, Cs^I ([2]; A: 1 hour at 80° C.): 2% | conversion to 1,4-cz-Lig isomer, K^I ([2]; A: 1 hour at 80° C.): 2% | conversion to 1,4-cz-Lig isomer, Li^I ([2]; A: 1 hour at 80° C.): 1% | conversion to 1,4-cz-Lig isomer, Na^I ([2]; A: 1 hour at 80° C.): 2% | conversion to 1,4-cz-Lig isomer, Rb^I ([2]; A: 1 hour at 80° C.): 2% | conversion to 1,5-cz-Lig isomer, Cs^I ([2]; A: 1 hour at 80° C.): 2% | conversion to 1,5-cz-Lig isomer, K^I ([2]; A: 1 hour at 80° C.): 2% | conversion to 1,5-cz-Lig isomer, Li^I ([2]; A: 1 hour at 80° C.): 12% | conversion to 1,5-cz-Lig isomer, Na^I ([2]; A: 1 hour at 80° C.): 30% | conversion to 1,5-cz-Lig isomer, Rb^I ([2]; A: 1 hour at 80° C.): 2% | conversion to 1,4-cz-Lig isomer, Cs^I ([2]; B: 1 day at 80° C.): 31% | conversion to 1,4-cz-Lig isomer, K^I ([2]; B: 1 day at 80° C.): 31% | conversion to 1,4-cz-Lig isomer, Na^I ([2]; B: 1 day at 80° C.): 4% | conversion to 1,4-cz-Lig isomer, Rb^I ([2]; B: 1 day at 80° C.): 31% | conversion to 1,5-cz-Lig isomer, Cs^I ([2]; B: 1 day at 80° C.): 21% | conversion to 1,5-cz-Lig isomer, K^I ([2]; B: 1 day at 80° C.): 23% | conversion to 1,5-cz-Lig isomer, Na^I ([2]; B: 1 day at 80° C.): 89% | conversion to 1,5-cz-Lig isomer, Rb^I ([2]; B: 1 day at 80° C.): 21% | conversion to 1,4-cz-Lig isomer, Li^I [2, 5]: 6% | conversion to 1,5-cz-Lig isomer, Li^I [2, 5]: 86% | conversion to 1,5-cz-[M(Lig)], Sc^III ([3]; 1 week at 80° C.): 0% | conversion to 1,5-cz-[M(Lig)], Y^III ([3]; 1 week at 80° C.): 14% | conversion to 1,5-cz-[M(Lig)], Sc^III ([3]; 1 hour at 80° C.): 0% | conversion to 1,5-cz-[M(Lig)], Y^III ([3]; 1 hour at 80° C.): 0% | conversion to 1,5-cz-[M(Lig)], Ba^II ([4]; 1 week at 80° C.): 0% | conversion to 1,5-cz-[M(Lig)], Sr^II ([4]; 1 week at 80° C.): 0% | conversion to 1,5-cz-[M(Lig)], Ca^II ([4]; 1 week at 80° C.): 0% | conversion to 1,5-cz-[M(Lig)], Cd^II ([4]; 1 week at 80° C.): 96% | conversion to 1,5-cz-[M(Lig)], Ba^II ([4]; 1 hour at 80° C.): 0% | conversion to 1,5-cz-[M(Lig)], Sr^II ([4]; 1 hour at 80° C.): 0% | conversion to 1,5-cz-[M(Lig)], Ca^II ([4]; 1 hour at 80° C.): 0% | conversion to 1,5-cz-[M(Lig)], Cd^II ([4]; 1 hour at 80° C., TD714 sum of two diastereoisomers): 92%
